The record followed here is US8853230B2, “Inhibitors of JAK” (Portola Pharmaceuticals, Inc., priority 2009, dated 2014).

What all share (format): biochemical
Test [1] concerns the target T1, JAK1 (Homo sapiens, UniProt P23458).
T1 construct: 5 μl of catalytic domain recombinant Kinase enzyme+Tyr peptide substrate (Invitrogen, Calif.); purchased Invitrogen
Kind of test: Z'-LYTE kinase assay, JAK1 tyrosine phosphorylation activity. To be noted: read-out: JAK 1 IC50. The gist of the method:
(§1)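 Catalytic domain + Tyr6 peptide + ATP + cpd (1% DMSO), 1 h RT; development protease 1 h RT; FRET ex 400/em 445, 520 nm; % phosphorylation vs no-inhibitor; IC50 by 4-parameter logistic; duplicates.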

Test [2] has as its target T2, JAK2 (Homo sapiens, UniProt O60674).
T2 construct: 5 μl of catalytic domain recombinant Kinase enzyme+Tyr peptide substrate (Invitrogen, Calif.); purchased Invitrogen
The test can be described thus: Z'-LYTE kinase assay, JAK2 tyrosine phosphorylation activity. In outline: as §1

Test [3] addresses T3, JAK3 (Homo sapiens, UniProt P52333).
T3 construct: 5 μl of catalytic domain recombinant Kinase enzyme+Tyr peptide substrate (Invitrogen, Calif.); purchased Invitrogen
The test can be described thus: Z'-LYTE kinase assay, JAK3 tyrosine phosphorylation activity. In outline:
as §1

The target of test [4] is T4, TYK2 (Homo sapiens, UniProt P29597).
T4 construct: 5 μl of catalytic domain recombinant Kinase enzyme+Tyr peptide substrate (Invitrogen, Calif.); purchased Invitrogen
T4 sequence (P29597 897-1176 limits assumed): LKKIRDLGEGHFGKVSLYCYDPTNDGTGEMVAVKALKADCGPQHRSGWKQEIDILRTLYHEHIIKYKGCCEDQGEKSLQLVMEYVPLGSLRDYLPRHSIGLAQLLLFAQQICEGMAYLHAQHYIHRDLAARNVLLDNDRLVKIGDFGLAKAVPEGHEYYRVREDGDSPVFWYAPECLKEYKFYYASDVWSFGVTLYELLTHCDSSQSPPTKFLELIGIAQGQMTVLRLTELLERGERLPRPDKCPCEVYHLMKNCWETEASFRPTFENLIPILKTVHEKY
The test can be described thus: Z'-LYTE kinase assay, TYK2 tyrosine phosphorylation activity. The procedure:
JAK and TYK2 tyrosine phosphorylation activity is measured using the Z′-LYTE™ Technology developed by Invitrogen Corporation (Carlsbad, Calif.). For JAK1, JAK2 and JAK3 the Z′-LYTE™ Kinase Assay Kit-Tyr6 Peptide (part number PV4122) was used. For TYK2 the Z′-LYTE™ Kinase Assay Kit-Tyr6 Peptide (part number PV3192) was used. The Z′-LYTE™ biochemical assay employs a fluorescence resonance energy transfer (FRET) coupled-enzyme format and is based on the differential sensitivity of phosphorylated and non-phosphorylated peptides to proteolitic cleavage. The assay uses a synthetic peptide substrate that is labelled with a donor fluorophore (coumarin) and an acceptor fluorophore (fluorescein) that make up a FRET pair. In the primary reaction (the Kinase Reaction), the kinase transfers the γ-phosphate of ATP to a single tyrosine residue on the substrate, while the presence of a kinase inhibitor in the primary reaction suppresses phosphorylation. In the secondary reaction (the Development Reaction), a site-specific protease (the Development Reagent) is added. The development buffer quenches the Kinase Reaction, while the protease recognizes and cleaves non-phosphorylated Z′-LYTE™ peptide substrate. Cleavage disrupts FRET between the donor and acceptor fluorophores on the non-phosphoryleted substrate, while uncleaved, phosphorylated substrate maintains FRET.
To test the ability of candidate molecules to inhibit JAK tyrosine phosphorylation activity, molecules are reconstituted in 100% DMSO and serially diluted 1:10 in polypropylene v-bottom microtiter plates. The candidate molecules are then diluted 1:25 into kinase buffer and 2.5 μl transferred into duplicate wells of a 384 well low volume black microtiter assay plate (Corning, USA). The final DMSO concentration in the assay is 1%. The kinase reaction contains 2.5 μl of a candidate molecule, 5 μl of catalytic domain recombinant Kinase enzyme+Tyr peptide substrate (Invitrogen, Calif.) and 2.5 μl ATP (Invitrogen, Calif.). The kinase reaction is allowed to procede for 1 hour at room temperature. The protease reaction is initiated by the addition of 5 μl Development Reagent (Invitrogen, Calif.). After 1 hour incubation at room temperature the fluorescence is measured using a FlexStation plate reader (Molecular Devices, Sunnyvale, Calif.). The reader settings used are as follows: Fluorescence mode, endpoint, top read, excitation 400 nm, emission 445 nm and 520 nm, Auto Cutoff 435 nm and 515 nm, PMT sensitivity high, 6 reads per well. Inhibition of JAK activity is calculated as the percent phosphorylation of substrate in the presence of inhibitor compared to the percent phosphorylation of substrate in the absence of inhibitor. IC50's were derived using Xlfit 4.3 (IDBS, UK), 4 parameter logistic model 205: Y=(A+((B−A)/(1+((C/x)^D)))).

T2 sequence (O60674 849-1124 limits assumed): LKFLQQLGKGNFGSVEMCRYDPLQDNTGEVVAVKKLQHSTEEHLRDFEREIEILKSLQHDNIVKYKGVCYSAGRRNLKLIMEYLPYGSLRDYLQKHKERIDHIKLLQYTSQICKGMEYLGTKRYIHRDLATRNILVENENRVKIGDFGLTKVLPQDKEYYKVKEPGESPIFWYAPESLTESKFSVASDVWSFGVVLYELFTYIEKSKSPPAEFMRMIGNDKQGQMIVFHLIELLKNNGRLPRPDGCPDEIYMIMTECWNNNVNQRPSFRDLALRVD
T1 sequence (P23458 875-1153 limits assumed): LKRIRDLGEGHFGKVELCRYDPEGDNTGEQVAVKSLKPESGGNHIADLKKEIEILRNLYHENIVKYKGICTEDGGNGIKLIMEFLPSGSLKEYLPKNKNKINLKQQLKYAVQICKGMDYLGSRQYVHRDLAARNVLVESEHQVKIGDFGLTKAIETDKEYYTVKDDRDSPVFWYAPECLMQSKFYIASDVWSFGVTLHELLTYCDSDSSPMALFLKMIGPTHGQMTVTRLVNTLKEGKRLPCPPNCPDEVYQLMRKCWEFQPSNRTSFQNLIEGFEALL
T3 sequence (P52333 822-1111 limits assumed): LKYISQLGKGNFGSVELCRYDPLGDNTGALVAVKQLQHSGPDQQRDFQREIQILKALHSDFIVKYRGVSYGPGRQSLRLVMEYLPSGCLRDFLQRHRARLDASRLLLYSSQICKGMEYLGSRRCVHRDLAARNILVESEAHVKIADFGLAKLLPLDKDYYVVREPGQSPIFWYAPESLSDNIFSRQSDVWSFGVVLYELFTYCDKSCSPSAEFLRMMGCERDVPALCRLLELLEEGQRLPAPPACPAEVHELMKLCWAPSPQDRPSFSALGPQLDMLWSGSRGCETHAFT

By IC50 is commonly meant the midpoint of a concentration-inhibition curve. With `CC(=O)Nc1cccc(Nc2cc(N[C@H](C)c3ccccc3)c(C(N)=O)cn2)c1` [Example 322, (R)-6-(3-acetamidophenylamino)-4-(1-phenylethylamino)nicotinamide], the IC50 fell in the range of 0.1 to 1 µM in test [1], 0.1 to 1 µM in test [2], 0.01 to 0.1 µM in test [3] and 0.1 to 1 µM in test [4].

Consider `CC[C@@H](C)Nc1nc(Nc2ccc(Cl)c(NC(=O)N3CCCC3)c2)ncc1C(N)=O` [Example 237, (R)-4-(sec-butylamino)-2-(4-chloro-3-(pyrrolidine-1-carboxamido)phenylamino)pyrimidine-5-carboxamide], for which the IC50 in test [1] lay within 0.01 to 0.1 µM; in test [2], 0.01 to 0.1 µM; in test [3], 0.001 to 0.01 µM; in test [4] it was 0.01 to 0.1 µM.

In the case of `CC(=O)Nc1cccc(Nc2ncc(C(N)=O)c(NCC3CCN(C(=O)OC(C)(C)C)C3)n2)c1` (stereo not shown) [Example 225, tert-butyl 3-((2-(3-acetamidophenylamino)-5-carbamoylpyrimidin-4-ylamino)methyl)pyrrolidine-1-carboxylate], the IC50 in test [1] lay within 0.1 to 1 µM; in test [2], 0.1 to 1 µM; in test [3], 0.01 to 0.1 µM; in test [4], 0.1 to 1 µM.

In the case of `CC(=O)Nc1cccc(Nc2ncc(C(N)=O)c(NCCC(C)C)n2)c1` [Example 251, 2-(3-acetamidophenylamino)-4-(isopentylamino)pyrimidine-5-carboxamide], the IC50 is 0.01 to 0.1 µM in test [1], 0.01 to 0.1 µM in test [2], 0.001 to 0.01 µM in test [3] and 0.001 to 0.01 µM in test [4].

Turning to `NC(=O)c1cnc(Nc2ccc(Cl)c(NC(=O)NC3CCC3)c2)nc1NCc1ccccc1` [Example 107, 4-(benzylamino)-2-(4-chloro-3-(3-cyclobutylureido)phenylamino)pyrimidine-5-carboxamide], the IC50 in test [1] was above 1 µM; in test [2], above 1 µM; in test [3], 0.1 to 1 µM; in test [4], 0.1 to 1 µM.

As to `COCC(=O)Nc1cccc(Nc2ncc(C(N)=O)c(NCc3ccc(F)cc3)n2)c1` [Example 104, 4-(4-fluorobenzylamino)-2-(3-(2-methoxyacetamido)phenylamino)pyrimidine-5-carboxamide], the IC50 lay in the range of 0.1 to 1 µM in test [1], 0.01 to 0.1 µM in test [2], 0.01 to 0.1 µM in test [3] and 0.01 to 0.1 µM in test [4].

For `CNC(=O)Nc1ccc(F)c(Nc2ncc(C(N)=O)c(NCc3ccccc3)n2)c1` [Example 200, 4-(benzylamino)-2-(2-fluoro-5-(3-methylureido)phenylamino)pyrimidine-5-carboxamide], the IC50 in test [1] is above 1 µM; in test [2], above 1 µM; in test [3], 0.01 to 0.1 µM; in test [4] it was 0.1 to 1 µM.

Take `CC(=O)Nc1cccc(Nc2ncc(C(N)=O)c(N[C@H](C)C(C)C)n2)c1` [Example 252, (R)-2-(3-acetamidophenylamino)-4-(3-methylbutan-2-ylamino)pyrimidine-5-carboxamide]: the IC50 is 0.001 to 0.01 µM in test [1], 0.001 to 0.01 µM in test [2], below 0.001 µM in test [3] and below 0.001 µM in test [4].

Consider `CNc1nc(Nc2cccc(NC(=O)N3CCCC3)c2)ncc1C(N)=O` [Example 133, 4-(methylamino)-2-(3-(pyrrolidine-1-carboxamido)phenylamino)pyrimidine-5-carboxamide], for which the half-maximal inhibitory concentration (IC50) in test [1] lay within 0.1 to 1 µM; in test [2], 0.1 to 1 µM; in test [3] it was 0.01 to 0.1 µM; in test [4], 0.01 to 0.1 µM.

With `CC(=O)Nc1cccc(Nc2ncc(C(N)=O)c(NCC(C)C)n2)c1` [Example 235, 2-(3-acetamidophenylamino)-4-(isobutylamino)pyrimidine-5-carboxamide], the IC50 lay in the range of 0.01 to 0.1 µM in test [1], 0.01 to 0.1 µM in test [2], 0.001 to 0.01 µM in test [3] and 0.001 to 0.01 µM in test [4].

Take `CC[C@H](C)Nc1nc(Nc2ccc(Cl)c(NC(=O)NC)c2)ncc1C(N)=O` [Example 175, (S)-4-(sec-butylamino)-2-(4-chloro-3-(3-methylureido)phenylamino)pyrimidine-5-carboxamide]: the IC50 lay in the range of 0.1 to 1 µM in test [1], 0.1 to 1 µM in test [2], 0.01 to 0.1 µM in test [3] and 0.01 to 0.1 µM in test [4].

For the molecule `CC(=O)Nc1cccc(Nc2ncc(C(N)=O)c(NCC3CCCN(C(=O)Nc4ccc(F)cc4)C3)n2)c1` (stereo not shown) [Example 118, 2-(3-acetamidophenylamino)-4-((1-(4-fluorophenylcarbamoyl)piperidin-3-yl)methylamino)pyrimidine-5-carboxamide], the IC50 in test [1] lay within 0.01 to 0.1 µM; in test [2] it was 0.01 to 0.1 µM; in test [3], 0.001 to 0.01 µM; in test [4], 0.01 to 0.1 µM.

For `CC(C)CNc1nc(Nc2ccc(Cl)c(NC(=O)N3CCCC3)c2)ncc1C(N)=O` [Example 236, 2-(4-chloro-3-(pyrrolidine-1-carboxamido)phenylamino)-4-(isobutylamino)pyrimidine-5-carboxamide], the IC50 in test [1], in test [2], in test [3] and in test [4] was 0.01 to 0.1 µM each time.

In the case of `CC(=O)Nc1cccc(Nc2ncc(C(N)=O)c(Nc3cccc(-c4ncccn4)c3)n2)c1` [Example 199], the IC50 in test [1], in test [2], in test [3] and in test [4] was 0.01 to 0.1 µM in each case.

For the molecule `CC(=O)Nc1cc(Nc2ncc(C(N)=O)c(Nc3cccc4nn(C)cc34)n2)ccc1OCCN1CCCC1` [Example 224, 2-(3-acetamido-4-(2-(pyrrolidin-1-yl)ethoxy)phenylamino)-4-(2-methyl-2H-indazol-4-ylamino)pyrimidine-5-carboxamide], the IC50 is 0.1 to 1 µM in test [1], 0.01 to 0.1 µM in test [2], 0.01 to 0.1 µM in test [3] and 0.1 to 1 µM in test [4].

As to `CC(=O)Nc1cccc(Nc2ncc(C(=O)O)c(NCC3CCNC3)n2)c1` (stereo not shown) [Example 226, 2-(3-acetamidophenylamino)-4-(pyrrolidin-3-ylmethylamino)pyrimidine-5-carboxylic acid], the IC50 in test [1] is 0.01 to 0.1 µM; in test [2] it was 0.1 to 1 µM; in test [3] it was 0.01 to 0.1 µM; in test [4], 0.1 to 1 µM.

Consider `CC(=O)Nc1cc(Nc2ncc(C(N)=O)c(Nc3cccc4nn(C)cc34)n2)ccc1OCCN(C)C` [Example 229, 2-(3-acetamido-4-(2-(dimethylamino)ethoxy)phenylamino)-4-(2-methyl-2H-indazol-4-ylamino)pyrimidine-5-carboxamide], for which the IC50 was above 1 µM in test [1], 0.01 to 0.1 µM in test [2], 0.01 to 0.1 µM in test [3] and 0.1 to 1 µM in test [4].

For the molecule `CC(=O)Nc1cccc(Nc2cc(NC3Cc4ccccc4C3)c(C(N)=O)cn2)c1` [Example 333, 6-(3-acetamidophenylamino)-4-(2,3-dihydro-1H-inden-2-ylamino)nicotinamide], the IC50 in test [1] is above 1 µM; in test [2], above 1 µM; in test [3], 0.1 to 1 µM; in test [4], 0.1 to 1 µM.

As to `NC(=O)c1cnc(Nc2cccc(NC(=O)[C@@H]3CCCO3)c2)nc1NCc1ccccc1` [Example 206, (S)-4-(benzylamino)-2-(3-(tetrahydrofuran-2-carboxamido)phenylamino)pyrimidine-5-carboxamide], the IC50 was 0.01 to 0.1 µM in test [1], 0.01 to 0.1 µM in test [2], 0.001 to 0.01 µM in test [3] and 0.001 to 0.01 µM in test [4].
